Format in all cases: functional
The test system of test [1] is Rattus norvegicus. Nature of the test: Anti-hypertensive activity in Wistar rat assessed as systolic blood pressure at 10 mg/kg, iv after 5 mins (reference value: 110 to 124.6 mmHg).
The test system of test [2] is Rattus norvegicus. As to the kind of experiment: Anti-hypertensive activity in Wistar rat assessed as diastolic blood pressure at 10 mg/kg, iv after 5 mins (reference value: 77.15 to 94.4 mmHg).
The test system of test [3] is Rattus norvegicus. Nature of the test: Anti-hypertensive activity in Wistar rat assessed as systolic blood pressure at 10 mg/kg, iv after 15 mins (reference value: 110 to 124.6 mmHg).
Test [4] relates to Rattus norvegicus. Nature of the test: Anti-hypertensive activity in Wistar rat assessed as diastolic blood pressure at 10 mg/kg, iv after 15 mins (reference value: 77.15 to 94.4 mmHg).
Test [5] concerns Rattus norvegicus. Nature of the test: Anti-hypertensive activity in Wistar rat assessed as systolic blood pressure at 10 mg/kg, iv after 30 mins (reference value: 110 to 124.6 mmHg).
Test [6] has as its system Rattus norvegicus. Nature of the test: Anti-hypertensive activity in Wistar rat assessed as diastolic blood pressure at 10 mg/kg, iv after 30 mins (reference value: 77.15 to 94.4 mmHg).
In test [7] the test system is Rattus norvegicus. Nature of the test: Anti-hypertensive activity in Wistar rat assessed as systolic blood pressure at 10 mg/kg, iv after 60 mins (reference value: 110 to 124.6 mmHg).
The subject of test [8] is Rattus norvegicus. As to the kind of experiment: Anti-hypertensive activity in Wistar rat assessed as diastolic blood pressure at 10 mg/kg, iv after 60 mins (reference value: 77.15 to 94.4 mmHg).
Test [9] deals with Rattus norvegicus. Nature of the test: Anti-hypertensive activity in Wistar rat assessed as systolic blood pressure at 10 mg/kg, iv after 120 mins (reference value: 110 to 124.6 mmHg).
Test [10] deals with Rattus norvegicus. As to the kind of experiment: Anti-hypertensive activity in Wistar rat assessed as diastolic blood pressure at 10 mg/kg, iv after 120 mins (reference value: 77.15 to 94.4 mmHg).
Test [11] deals with Rattus norvegicus. As to the kind of experiment: Anti-hypertensive activity in Wistar rat assessed as systolic blood pressure at 10 mg/kg, iv after 150 mins (reference value: 110 to 124.6 mmHg).
Test [12] concerns Rattus norvegicus. Nature of the test: Anti-hypertensive activity in Wistar rat assessed as diastolic blood pressure at 10 mg/kg, iv after 150 mins (reference value: 77.15 to 94.4 mmHg).
Test [13] concerns Rattus norvegicus. As to the kind of experiment: Anti-hypertensive activity in Wistar rat assessed as systolic blood pressure at 10 mg/kg, iv after 180 mins (reference value: 110 to 124.6 mmHg).
Test [14] concerns Rattus norvegicus. Nature of the test: Anti-hypertensive activity in Wistar rat assessed as diastolic blood pressure at 10 mg/kg, iv after 180 mins (reference value: 77.15 to 94.4 mmHg).

For four molecules, Activity results are on record in ChEMBL document CHEMBL3877319, “Synthesis of Ofornine mimics from natural product l-vasicine as anti-hypertensive agents” (Bioorg Med Chem, 2017).

Structures are written as SMILES.

Turning to `O=C(c1ccccc1-n1cc(-c2ccc(-c3ccccc3)cc2)nn1)N1CC[C@@H](O)C1`, the Activity in the test with Rattus norvegicus [1] amounted to 112 mmHg; in the test with Rattus norvegicus [2] it was 82 mmHg; with Rattus norvegicus [3], 113 mmHg; in the test with Rattus norvegicus [4] it was 82 mmHg; with Rattus norvegicus [5], 106.9 mmHg; in the test with Rattus norvegicus [6], 79.1 mmHg. Besides, the Activity with Rattus norvegicus [7] amounted to 110.1 mmHg; with Rattus norvegicus [8] it was 86.8 mmHg; in the test with Rattus norvegicus [9] it was 107.3 mmHg; in the test with Rattus norvegicus [10], 87.8 mmHg; in the test on Rattus norvegicus [11], 116.3 mmHg; in the test on Rattus norvegicus [12], 81.3 mmHg. For the same molecule, the Activity worked out at 109.6 mmHg in the test with Rattus norvegicus [13] and 78.3 mmHg with Rattus norvegicus [14].
With `O=C(c1ccccc1Nc1ccncc1)N1CC[C@@H](n2cc(C3CC3)nn2)C1`, the Activity in the test with Rattus norvegicus [1] is 116.4 mmHg; in the test on Rattus norvegicus [2] it was 77.08 mmHg; in the test on Rattus norvegicus [3] it was 115.1 mmHg; in the test with Rattus norvegicus [4], 79.63 mmHg; in the test with Rattus norvegicus [5], 112.2 mmHg; in the test with Rattus norvegicus [6] it was 76.29 mmHg. The Activity came out at 108.2 mmHg in the test on Rattus norvegicus [7]; 73.85 mmHg with Rattus norvegicus [8]; 111.6 mmHg with Rattus norvegicus [9]; 86.96 mmHg in the test on Rattus norvegicus [10]; 110.4 mmHg with Rattus norvegicus [11]; 85.74 mmHg in the test with Rattus norvegicus [12]. In addition, the values for the Activity with Rattus norvegicus [13] and with Rattus norvegicus [14] were 117.2 mmHg and 86.32 mmHg, respectively.
Consider `O=C(c1ccccc1-n1cc(C2CC2)nn1)N1CC[C@@H](O)C1`, for which the Activity is listed as 113.8 mmHg in the test on Rattus norvegicus [1]; 79.6 mmHg in the test on Rattus norvegicus [2]; 114.91 mmHg in the test on Rattus norvegicus [3]; 90.7 mmHg with Rattus norvegicus [4]; 118.1 mmHg in the test with Rattus norvegicus [5]; 84.35 mmHg with Rattus norvegicus [6]. Also, the Activity with Rattus norvegicus [7] is recorded as 120 mmHg; with Rattus norvegicus [8], 82.75 mmHg; in the test on Rattus norvegicus [9], 120.4 mmHg; in the test with Rattus norvegicus [10], 83.3 mmHg; with Rattus norvegicus [11], 121.7 mmHg; in the test with Rattus norvegicus [12], 84.3 mmHg. For the same molecule, the figures for the Activity with Rattus norvegicus [13] and in the test on Rattus norvegicus [14] were 123.7 mmHg and 86.6 mmHg, respectively.
Take `O=C(c1ccccc1Nc1ccncc1)N1CC[C@@H](n2cc(-c3ccccc3)nn2)C1`: the Activity worked out at 85.3 mmHg with Rattus norvegicus [1]; 58.7 mmHg with Rattus norvegicus [2]; 94.3 mmHg with Rattus norvegicus [3]; 65.5 mmHg in the test with Rattus norvegicus [4]; 100.7 mmHg with Rattus norvegicus [5]; 70.2 mmHg with Rattus norvegicus [6]. Also, the Activity is on record as 109.8 mmHg with Rattus norvegicus [7]; 72.2 mmHg with Rattus norvegicus [8]; 116.2 mmHg in the test on Rattus norvegicus [9]; 80 mmHg in the test on Rattus norvegicus [10]; 120.8 mmHg in the test on Rattus norvegicus [11]; 80.15 mmHg in the test on Rattus norvegicus [12]. Also, the values for the Activity with Rattus norvegicus [13] and with Rattus norvegicus [14] were 121.2 mmHg and 86.75 mmHg, respectively.
